This is an account of results in patent publication US11299480B2, “2-arylsulfonamido-N-arylacetamide derivatized STAT3 inhibitors” (University of Hawaii, priority 2017, dated 2022).

The term solubility denotes the concentration that dissolves in the medium under given conditions. Lower therefore signals a poorly soluble substance. As usually defined, the IC50 is the concentration at which inhibition is half-maximal.

Values after ≈ are worked out from the molar mass of the structure shown.

System in the first data set: not listed separately
The data set is described as follows: physchem. The conditions noted are these: simulated gastric fluid (SGF), pH 1.2, simulated gastric fluid.
As to `C[C@H](C(=O)N(Cc1ccc(C2CCCCC2)cc1)c1ccc(C(=O)NO)cc1F)N(C)S(=O)(=O)c1c(F)c(F)c(F)c(F)c1F` [Example 38, (R)-4-(N-(4-Cyclohexylbenzyl)-2-((2,3,4,5,6-pentafluoro-N-methylphenyl)sulfonamido)propanamido)-3-fluoro-N-hydroxybenzamide], the solubility is 0.8 µg/mL (≈ 1.22 µM).

System in another data set: not listed separately
The data set is described as follows: Aqueous solubility (PBS, SGF, SIF).
Details: not given
Regarding `C[C@H](C(=O)N(Cc1ccc(C2CCCCC2)cc1)c1ccc(C(=O)NO)cc1F)N(C)S(=O)(=O)c1c(F)c(F)c(F)c(F)c1F` [Example 38, (R)-4-(N-(4-Cyclohexylbenzyl)-2-((2,3,4,5,6-pentafluoro-N-methylphenyl)sulfonamido)propanamido)-3-fluoro-N-hydroxybenzamide], the “solubility in PBS buffer pH 7.4” value is 4.7 μg/mL and the “solubility in simulated intestinal fluid (SIF)” value is 72 µg/mL (≈ 109 µM).

Still in this data set, the particulars now being: PBS buffer pH 7.4.
For the compound `C[C@H](C(=O)N(Cc1ccc(C2CCCCC2)cc1)c1ccc(C(=O)NO)cc1F)N(C)S(=O)(=O)c1c(F)c(F)c(F)c(F)c1F` [Example 38, (R)-4-(N-(4-Cyclohexylbenzyl)-2-((2,3,4,5,6-pentafluoro-N-methylphenyl)sulfonamido)propanamido)-3-fluoro-N-hydroxybenzamide], the “Solubility PBS” value amounted to 4.7 micrograms/milliliter.

Staying with this data set, now noted: simulated intestinal fluid.
For `C[C@H](C(=O)N(Cc1ccc(C2CCCCC2)cc1)c1ccc(C(=O)NO)cc1F)N(C)S(=O)(=O)c1c(F)c(F)c(F)c(F)c1F` [Example 38, (R)-4-(N-(4-Cyclohexylbenzyl)-2-((2,3,4,5,6-pentafluoro-N-methylphenyl)sulfonamido)propanamido)-3-fluoro-N-hydroxybenzamide], the “Solubility SIF” value is listed as 72 micrograms/milliliter.

The next data set deals with Stat3 (Mus musculus, UniProt P42227).
Sequence of Stat3 (P42227 2-770 limits assumed): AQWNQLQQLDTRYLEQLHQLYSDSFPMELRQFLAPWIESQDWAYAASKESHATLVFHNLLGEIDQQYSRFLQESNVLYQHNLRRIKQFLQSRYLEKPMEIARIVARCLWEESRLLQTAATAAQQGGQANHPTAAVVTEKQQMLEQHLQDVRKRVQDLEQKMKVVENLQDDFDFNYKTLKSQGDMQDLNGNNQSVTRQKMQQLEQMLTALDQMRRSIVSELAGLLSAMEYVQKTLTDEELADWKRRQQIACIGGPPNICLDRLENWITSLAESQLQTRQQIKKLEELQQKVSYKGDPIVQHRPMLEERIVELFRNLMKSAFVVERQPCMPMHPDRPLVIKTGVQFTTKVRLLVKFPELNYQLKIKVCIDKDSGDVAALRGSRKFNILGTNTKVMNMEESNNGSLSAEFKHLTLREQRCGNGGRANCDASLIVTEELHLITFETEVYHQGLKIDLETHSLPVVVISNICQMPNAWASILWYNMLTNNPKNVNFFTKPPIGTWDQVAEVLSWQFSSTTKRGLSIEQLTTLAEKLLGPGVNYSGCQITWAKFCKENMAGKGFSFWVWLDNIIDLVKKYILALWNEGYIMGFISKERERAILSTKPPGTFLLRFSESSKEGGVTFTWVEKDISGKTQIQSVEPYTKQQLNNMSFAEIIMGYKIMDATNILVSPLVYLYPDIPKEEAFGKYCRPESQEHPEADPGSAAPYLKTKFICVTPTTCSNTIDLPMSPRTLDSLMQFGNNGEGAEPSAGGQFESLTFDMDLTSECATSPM
Experiment: not given
The conditions noted are these: EMSA; read-out: IC50, inhibition of Stat3 DNA-binding activity in vitro. Format: biochemical. How it is done: FIG. 1. Effect of select compounds of the present invention on Stat3 DNA-binding activity in vitro. […] Positions of Stat3:DNA complexes in gel are labeled; control lanes (0) represent nuclear extracts pre-treated with 10% DMSO.
Except where indicated, nuclear extracts were pre-incubated with compound for 30 min at room temperature prior to incubation with the radiolabeled probe for 30 min at 30° C. before subjecting to EMSA analysis. Where appropriate, bands corresponding to Stat3:DNA complexes were scanned and quantified for each concentration of compound using ImageJ and plotted as percent of control (DMSO) against concentration of compound, from which the IC50 values were derived.
For orientation: Mobility shift assays separate free from complexed probe on a gel.
As for `NC(=O)c1ccc(N(Cc2ccc(C3CCCCC3)cn2)C(=O)[C@H]2CCN2S(=O)(=O)c2c(F)c(F)c(F)c(F)c2F)cc1O` [Example 143, (R)—N-(4-carbamoyl-3-hydroxyphenyl)-N-((5-cyclohexylpyridin-2-yl)methyl)-1-((perfluorophenyl)sulfonyl)azetidine-2-carboxamide], the IC50 is 664 ± 167 nM.

Still in this data set, the particulars now being: Stat3 DNA-binding activity in vitro; nuclear extracts pre-incubated with compound 30 min at room temperature, hSIE probe; read-out: EMSA IC50.
In the case of `O=C(O)c1ccc(N(Cc2ccc(C3CCOCC3)cc2)C(=O)[C@H]2CCCN2S(=O)(=O)c2c(F)c(F)c(F)c(F)c2F)cc1O` [Example 27, (R)-2-Hydroxy-4-(1-((pentafluorophenyl)sulfonyl)-N-(4-(tetrahydro-2H-pyran-4-yl)benzyl)pyrrolidine-2-carboxamido)benzoic acid], the IC50 worked out at 5400 nM.
The same measure, in the same setting: as for `O=C(O)c1ccc(N(Cc2ccc(C3CCOC3)cc2)C(=O)[C@H]2CCCN2S(=O)(=O)c2c(F)c(F)c(F)c(F)c2F)cc1O` (stereo partly drawn) [Example 29, 2-Hydroxy-4-((2R)-1-((pentafluorophenyl)sulfonyl)-N-(4-(tetrahydrofuran-3-yl)benzyl)pyrrolidine-2-carboxamido)benzoic acid], the figure is 4500 ± 1000 nM; as for `O=C(O)c1ccc(N(Cc2ccc(C3CCCCC3)cc2)C(=O)[C@H]2CCCCN2S(=O)(=O)c2c(F)c(F)c(F)c(F)c2F)cc1O` [Example 32, (R)-4-(N-(4-cyclohexylbenzyl)-1-((pentafluorophenyl)sulfonyl)piperidine-2-carboxamido)-2-hydroxybenzoic acid], 5400 ± 1600 nM.
Still for that read-out and setting: then `O=C(O)c1ccc(N(Cc2ccc(C3CCCCC3)cc2)C(=O)[C@H]2CCCN2S(=O)(=O)c2c(F)c(F)c(F)c(F)c2F)c(F)c1` [Example 39, (R)-4-(N-(4-cyclohexylbenzyl)-1-((perfluorophenyl)sulfonyl)pyrrolidine-2-carboxamido)-3-fluorobenzoic acid], with 5300 ± 400 nM; and `O=C(O)c1ccc(N(Cc2ccc(C3CCCCC3)cc2)C(=O)[C@H]2CCCN2S(=O)(=O)c2c(F)c(F)c(F)c(F)c2F)cc1Cl` [Example 46, (R)-2-chloro-4-(N-(4-cyclohexylbenzyl)-1-((perfluorophenyl)sulfonyl)pyrrolidine-2-carboxamido)benzoic acid], with 3800 ± 800 nM; and `Cc1cc(C(=O)O)cc(C)c1N(Cc1ccc(C2CCCCC2)cc1)C(=O)[C@@H](C)N(C)S(=O)(=O)c1c(F)c(F)c(F)c(F)c1F` [Example 47, (R)-4-(N-(4-cyclohexylbenzyl)-2-((2,3,4,5,6-pentafluoro-N-methylphenyl)sulfonamido)propanamido)-3,5-dimethylbenzoic acid], with 4200 ± 700 nM.
On the same count and under the same terms, as for `O=C(NO)c1ccc(N(Cc2ccc(C3CCCCC3)cc2)C(=O)[C@H]2CCN2S(=O)(=O)c2c(F)c(F)c(F)c(F)c2F)c(F)c1` [Example 50, (R)—N-(4-cyclohexylbenzyl)-N-(2-fluoro-4-(hydroxycarbamoyl)phenyl)-1-((perfluorophenyl)sulfonyl)azetidine-2-carboxamide], the figure is 1750 ± 190 nM.
For `O=C(O)c1ccc(N(Cc2ccc(C3CCCC3)cc2)C(=O)[C@H]2CCCN2S(=O)(=O)c2c(F)c(F)c(F)c(F)c2F)cc1O` [Example 79, (R)-4-(N-(4-cyclopentylbenzyl)-1-((perfluorophenyl)sulfonyl)pyrrolidine-2-carboxamido)-2-hydroxybenzoic acid], the IC50 was found to be 3600 ± 300 nM.
The same measure, in the same setting: as for `O=C(NO)c1ccc(N(Cc2ccc(C3CCCCC3)cc2)C(=O)[C@H]2CCN2S(=O)(=O)c2c(F)c(F)c(F)c(F)c2F)cc1` [Example 83, (R)—N-(4-cyclohexylbenzyl)-N-(4-(hydroxycarbamoyl)phenyl)-1-((perfluorophenyl)sulfonyl)azetidine-2-carboxamide], the figure is 2510 ± 230 nM; as for `O=C(NO)c1ccc(N(Cc2ccc(C3CCOCC3)cc2)C(=O)[C@H]2CCN2S(=O)(=O)c2c(F)c(F)c(F)c(F)c2F)cc1O` [Example 84, (R)—N-(3-hydroxy-4-(hydroxycarbamoyl)phenyl)-1-((perfluorophenyl)sulfonyl)-N-(4-(tetrahydro-2H-pyran-4-yl)benzyl)azetidine-2-carboxamide], 2070 ± 120 nM; as for `O=C(NO)c1ccc(N(Cc2ccc(C3CCCCC3)cc2)C(=O)[C@H]2CCN2S(=O)(=O)c2c(F)c(F)c(F)c(F)c2F)cc1O` [Example 85, (R)—N-(4-cyclohexylbenzyl)-N-(3-hydroxy-4-(hydroxycarbamoyl)phenyl)-1-((perfluorophenyl)sulfonyl)azetidine-2-carboxamide], 1320 ± 360 nM.
Take `O=C(NO)c1ccc(N(Cc2ccc(C3CCOCC3)cc2)C(=O)[C@H]2CCN2S(=O)(=O)c2c(F)c(F)c(F)c(F)c2F)cc1` [Example 87, (R)—N-(4-(hydroxycarbamoyl)phenyl)-1-((perfluorophenyl)sulfonyl)-N-(4-(tetrahydro-2H-pyran-4-yl)benzyl)azetidine-2-carboxamide]: the half-maximal inhibitory concentration (IC50) came out at 2920 ± 120 nM.
On the same count and under the same terms, as for `O=C(NO)c1ccc(N(Cc2ccc(C3CCCC3)cc2)C(=O)[C@H]2CCN2S(=O)(=O)c2c(F)c(F)c(F)c(F)c2F)cc1` [Example 88, (R)—N-(4-cyclopentylbenzyl)-N-(4-(hydroxycarbamoyl)phenyl)-1-((perfluorophenyl)sulfonyl) azetidine-2-carboxamide], the figure is 2250 ± 720 nM; as for `O=C(NO)c1cc(F)c(N(Cc2ccc(C3CCOCC3)cc2)C(=O)[C@H]2CCN2S(=O)(=O)c2c(F)c(F)c(F)c(F)c2F)cc1O` [Example 89, (R)—N-(2-fluoro-5-hydroxy-4-(hydroxycarbamoyl)phenyl)-1-((perfluorophenyl)sulfonyl)-N-(4-(tetrahydro-2H-pyran-4-yl)benzyl)azetidine-2-carboxamide], 2110 ± 240 nM.
The same measure, in the same setting: as for `COC(=O)c1ccc(N(Cc2ccc(C3CCCCC3)nc2)C(=O)[C@H]2CCN2S(=O)(=O)c2c(F)c(F)c(F)c(F)c2F)cc1O` [Example 92, Methyl (R)-4-(N-((6-cyclohexylpyridin-3-yl)methyl)-1-((perfluorophenyl)sulfonyl)azetidine-2-carboxamido)-2-hydroxybenzoate], the figure is 1050 ± 125 nM; as for `O=C([C@H]1CCN1S(=O)(=O)c1c(F)c(F)c(F)c(F)c1F)N(Cc1ccc(C2CCCCC2)cc1)c1ccc2nc[nH]c2c1` [Example 99, (R)—N-(M-benzo[d]imidazol-6-yl)-N-(4-cyclohexylbenzyl)-1-((perfluorophenyl)sulfonyl)azetidine-2-carboxamide], 2350 ± 546 nM; as for `O=C([C@H]1CCN1S(=O)(=O)c1c(F)c(F)c(F)c(F)c1F)N(Cc1ccc(C2CCCCC2)cn1)c1ccc2c(=O)[nH]ncc2c1` [Example 102, (R)—N-((5-cyclohexylpyridin-2-yl)methyl)-N-(1-oxo-1,2-dihydrophthalazin-6-yl)-1-((perfluorophenyl)sulfonyl)azetidine-2-carboxamide], 663 ± 182 nM.
In the case of `O=C(O)c1ccc(N(Cc2ccc(C3CCCCC3)cn2)C(=O)[C@H]2CCN2S(=O)(=O)c2c(F)c(F)c(F)c(F)c2F)c(F)c1` [Example 108, (R)-4-(N-((5-cyclohexylpyridin-2-yl)methyl)-1-((perfluorophenyl)sulfonyl)azetidine-2-carboxamido)-3-fluorobenzoic acid], the IC50 is 755 ± 110 nM.
Still for that read-out and setting: then `O=C(O)c1ccc(N(Cc2ccc(C3CCCCC3)cn2)C(=O)[C@H]2CCN2S(=O)(=O)c2c(F)c(F)c(F)c(F)c2F)cc1F` [Example 116, (R)-4-(N-((5-cyclohexylpyridin-2-yl)methyl)-1-((perfluorophenyl)sulfonyl)azetidine-2-carboxamido)-2-fluorobenzoic acid], with 856 ± 112 nM; and `O=C(O)c1ccc(N(Cc2ccc(C3CCCC3)cn2)C(=O)[C@H]2CCN2S(=O)(=O)c2c(F)c(F)c(F)c(F)c2F)c(F)c1` [Example 124, (R)-4-(N-((5-cyclopentylpyridin-2-yl)methyl)-1-((perfluorophenyl)sulfonyl)azetidine-2-carboxamido)-3-fluorobenzoic acid], with 1180 ± 187 nM.
For the compound `CC(C)(C)c1ccc(CN(C(=O)[C@H]2CCN2S(=O)(=O)c2c(F)c(F)c(F)c(F)c2F)c2ccc(C(=O)O)c(O)c2)cc1` [Example 130, (R)-4-(N-(4-(tert-butyl)benzyl)-1-((perfluorophenyl)sulfonyl)azetidine-2-carboxamido)-2-hydroxybenzoic acid], the IC50 is 2170 ± 298 nM.
`CC(C)(C)c1ccc(CN(C(=O)[C@H]2CCN2S(=O)(=O)c2c(F)c(F)c(F)c(F)c2F)c2ccc(C(=O)O)cc2F)cc1` [Example 131, (R)-4-(N-(4-(tert-butyl)benzyl)-1-((perfluorophenyl)sulfonyl)azetidine-2-carboxamido)-3-fluorobenzoic acid]: the 50% inhibitory concentration (IC50) was 3550 ± 97 nM.
On the same count and under the same terms, as for `NC(=O)c1ccc(N(Cc2ccc(C3CCCCC3)cn2)C(=O)[C@H]2CCN2S(=O)(=O)c2c(F)c(F)c(F)c(F)c2F)cc1O` [Example 143, (R)—N-(4-carbamoyl-3-hydroxyphenyl)-N-((5-cyclohexylpyridin-2-yl)methyl)-1-((perfluorophenyl)sulfonyl)azetidine-2-carboxamide], the figure is 664 ± 167 nM; as for `O=C([C@H]1CCN1S(=O)(=O)c1c(F)c(F)c(F)c(F)c1F)N(Cc1cnc(C2CCCCC2)cn1)c1ccc2c(=O)[nH]cnc2c1` [Example 151, (R)—N-((5-cyclohexylpyrazin-2-yl)methyl)-N-(4-oxo-3,4-dihydroquinazolin-7-yl)-1-((perfluorophenyl)sulfonyl)azetidine-2-carboxamide], 1460 ± 151 nM.
